Laboratory results published in ChEMBL document CHEMBL3886561, “Pyridine-and pyrazine derivatives” (2016).
pIC50: −log10 of the molar value.

How the values were obtained:
[1] = target: T1, Serine/threonine-protein kinase TBK1 (Homo sapiens, UniProt Q9UHD2); assay: TBK1 : The kinase assay is performed as 384-well Flashplate assay (for e.g. Topcount measurement. 0.6 nM TANK binding kinase (TBK1), 800 nM biotinylated MELK-derived peptide (Biotin-Ah-Ah-[…]) SEQ ID NO: 2 and 10 uM ATP (spiked with 0.25 uCi 33P-ATP/well) are incubated in a total volume of 50 ul (10 mM MOPS, 10 mM Mg-acetat, 0.1 mM EGTA, 1 mM DTT, 0.02% Brij35, 0.1% BSA, pH 7.5) with or without test compound for 120 Min at 30° C. The reaction is stopped with 25 ul 200 mM EDTA. After 30 Min at room temperature the liquid is removed and each well washed thrice with 100 ul 0.9% sodium chloride solution.
T1 sequence (Q9UHD2 whole entry): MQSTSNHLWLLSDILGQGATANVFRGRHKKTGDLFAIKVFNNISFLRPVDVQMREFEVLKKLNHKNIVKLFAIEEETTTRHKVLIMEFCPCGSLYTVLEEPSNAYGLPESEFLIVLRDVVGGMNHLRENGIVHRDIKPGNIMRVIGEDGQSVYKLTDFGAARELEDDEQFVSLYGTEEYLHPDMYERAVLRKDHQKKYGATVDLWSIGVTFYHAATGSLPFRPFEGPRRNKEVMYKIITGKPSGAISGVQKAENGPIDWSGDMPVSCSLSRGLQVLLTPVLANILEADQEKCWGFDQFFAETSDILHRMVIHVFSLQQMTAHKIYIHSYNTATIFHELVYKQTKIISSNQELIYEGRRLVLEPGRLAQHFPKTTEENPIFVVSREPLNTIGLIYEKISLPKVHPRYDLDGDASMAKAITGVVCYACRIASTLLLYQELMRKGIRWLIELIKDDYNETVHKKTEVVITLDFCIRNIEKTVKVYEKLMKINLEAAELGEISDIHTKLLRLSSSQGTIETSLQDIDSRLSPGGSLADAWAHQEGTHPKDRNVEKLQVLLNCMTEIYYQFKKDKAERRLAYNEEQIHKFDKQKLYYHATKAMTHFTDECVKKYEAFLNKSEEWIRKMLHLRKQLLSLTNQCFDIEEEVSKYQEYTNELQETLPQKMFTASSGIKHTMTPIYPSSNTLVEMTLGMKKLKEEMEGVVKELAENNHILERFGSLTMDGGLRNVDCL

[2] = target: T2, Inhibitor of nuclear factor kappa-B kinase subunit epsilon (Homo sapiens, UniProt Q14164); assay: IKKepsilon Flashplate Assay: The kinase assay is performed either as 384-well Flashplate assay (for e.g. Topcount measurement). 1 nM IKKepsilon, 800 nM biotinylated IkappaBalpha(19-42) peptide (Biotin-C6-C6-[…]) SEQ ID NO: 1 and 10 uM ATP (spiked with 0.3 uCi 33P-ATP/well) are incubated in a total volume of 50 ul (10 mM MOPS, 10 mM Mg-acetat, 0.1 mM EGTA, 1 mM Dithiothreitol,0.02% Brij35, 0.1% BSA, 0.1% BioStab, pH 7.5) with or without test compound for 2 hours at 30° C. The reaction is stopped with 25 ul 200 mM EDTA. After 30 Min at room temperature the liquid is removed and each well washed thrice with 100 ul 0.9% sodium chloride solution. Non-specific reaction is determined in presence of 3 uM MSC2119074 (BX-795). Radioactivity is measured with Topcount (PerkinElmer).
T2 sequence (Q14164 whole entry): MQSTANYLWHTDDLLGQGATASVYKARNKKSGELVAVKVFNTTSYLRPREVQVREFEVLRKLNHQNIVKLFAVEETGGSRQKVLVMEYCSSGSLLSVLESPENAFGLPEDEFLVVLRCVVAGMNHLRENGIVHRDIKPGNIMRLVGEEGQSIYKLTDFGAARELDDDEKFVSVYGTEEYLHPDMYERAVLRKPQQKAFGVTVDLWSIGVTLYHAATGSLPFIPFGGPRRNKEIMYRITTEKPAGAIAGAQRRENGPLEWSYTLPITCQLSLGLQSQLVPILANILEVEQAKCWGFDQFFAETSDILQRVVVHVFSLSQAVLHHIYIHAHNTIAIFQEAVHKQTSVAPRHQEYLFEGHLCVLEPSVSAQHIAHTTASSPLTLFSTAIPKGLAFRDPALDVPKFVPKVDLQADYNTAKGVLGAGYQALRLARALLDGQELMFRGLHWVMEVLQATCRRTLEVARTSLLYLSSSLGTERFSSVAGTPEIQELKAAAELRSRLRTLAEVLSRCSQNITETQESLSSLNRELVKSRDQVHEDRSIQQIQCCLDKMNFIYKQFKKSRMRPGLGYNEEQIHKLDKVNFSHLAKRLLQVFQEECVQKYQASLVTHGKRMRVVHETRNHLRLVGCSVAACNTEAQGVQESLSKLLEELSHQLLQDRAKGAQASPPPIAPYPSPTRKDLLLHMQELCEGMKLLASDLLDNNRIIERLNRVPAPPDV

- pIC50 [1]: 5.96
- pIC50 [2]: 5.49
SMILES: Nc1ncc(-c2cccc(C(=O)O)c2)cc1C(=O)Nc1ccncc1
